Consider three compounds from patent US10670605B2, “Cysteine reactive probes and uses thereof” (The Scripps Research Institute, priority 2015, dated 2020).

What all share (assay): Competitive isoTOP-ABPP, cell lysates
Common to all, as to assay type: binding

The target of one test is CASP8 C360 (Q14790) (Homo sapiens, UniProt Q14790). The settings on record: for isoTOP-ABPP ratio Q14790_C360: 500 μM, invitro; for isoTOP-ABPP reactivity ratio, Q14790_C360: 500 μm.
For the next test, the target named is T1, IRF4 C194 (Q15306) (Homo sapiens, UniProt Q15306).
T1 sequence (Q15306 1-451): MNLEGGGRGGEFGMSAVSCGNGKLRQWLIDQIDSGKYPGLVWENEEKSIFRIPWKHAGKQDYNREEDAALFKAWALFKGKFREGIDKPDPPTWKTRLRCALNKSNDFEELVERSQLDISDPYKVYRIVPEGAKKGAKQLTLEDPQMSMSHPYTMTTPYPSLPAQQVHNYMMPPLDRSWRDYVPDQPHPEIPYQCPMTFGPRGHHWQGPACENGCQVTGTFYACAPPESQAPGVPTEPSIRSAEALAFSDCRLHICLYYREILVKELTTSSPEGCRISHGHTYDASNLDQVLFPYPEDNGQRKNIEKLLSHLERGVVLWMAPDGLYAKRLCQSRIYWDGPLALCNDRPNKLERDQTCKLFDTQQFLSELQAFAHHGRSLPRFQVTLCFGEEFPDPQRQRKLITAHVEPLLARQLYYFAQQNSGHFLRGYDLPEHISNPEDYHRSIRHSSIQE

A further test has as its target SMARCC2 C145 (Q8TAQ2) (Homo sapiens, UniProt Q8TAQ2). The following applies: for isoTOP-ABPP reactivity ratio, Q8TAQ2_C145: 500 μm.
Another test addresses T2, USP22 C171 (Q9UPT9) (Homo sapiens, UniProt Q9UPT9).
T2 sequence (Q9UPT9 1-525): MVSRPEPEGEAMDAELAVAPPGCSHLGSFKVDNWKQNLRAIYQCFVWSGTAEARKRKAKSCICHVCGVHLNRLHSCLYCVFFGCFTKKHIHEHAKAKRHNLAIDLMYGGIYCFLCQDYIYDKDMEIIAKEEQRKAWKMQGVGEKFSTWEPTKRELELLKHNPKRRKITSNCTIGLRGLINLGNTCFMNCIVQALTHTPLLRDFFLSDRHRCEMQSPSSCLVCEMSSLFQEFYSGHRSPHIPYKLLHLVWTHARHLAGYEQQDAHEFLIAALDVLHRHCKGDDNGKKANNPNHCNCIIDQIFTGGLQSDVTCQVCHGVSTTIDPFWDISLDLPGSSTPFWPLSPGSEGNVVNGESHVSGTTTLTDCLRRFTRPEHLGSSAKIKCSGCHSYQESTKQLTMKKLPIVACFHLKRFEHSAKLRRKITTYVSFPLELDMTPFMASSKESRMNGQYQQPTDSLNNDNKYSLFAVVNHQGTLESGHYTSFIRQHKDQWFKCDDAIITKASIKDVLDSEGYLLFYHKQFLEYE
The settings on record: for isoTOP-ABPP reactivity ratio, Q9UPT9_C171: 500 μm.

A further test has as its target T3, ACAT1 C119 (P24752) (Homo sapiens, UniProt P24752).
T3 sequence (P24752 34-427): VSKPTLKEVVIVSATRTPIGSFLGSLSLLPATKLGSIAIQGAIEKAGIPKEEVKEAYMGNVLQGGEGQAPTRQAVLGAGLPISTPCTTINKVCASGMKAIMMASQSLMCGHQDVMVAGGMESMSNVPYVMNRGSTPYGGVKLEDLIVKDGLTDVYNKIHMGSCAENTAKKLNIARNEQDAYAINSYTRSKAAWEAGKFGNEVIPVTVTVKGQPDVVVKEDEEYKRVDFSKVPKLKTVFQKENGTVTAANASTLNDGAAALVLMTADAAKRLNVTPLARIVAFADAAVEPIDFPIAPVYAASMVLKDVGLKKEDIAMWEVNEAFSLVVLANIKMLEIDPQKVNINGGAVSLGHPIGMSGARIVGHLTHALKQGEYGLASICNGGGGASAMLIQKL
The settings on record: for isoTOP-ABPP ratio P24752_C119: 500 μM, invitro; for isoTOP-ABPP reactivity ratio, P24752_C119: 500 μm.

The next test concerns the target T4, ACAT1 C196 (P24752) (Homo sapiens, UniProt P24752).
T4 sequence (P24752 34-427): T3 sequence (P24752 34-427)
The settings on record: for isoTOP-ABPP ratio, P24752_C196: 500 μM, invitro; for isoTOP-ABPP reactivity ratio, P24752_C196: 500 μm.

The next test addresses T5, ACAT1 C413 (P24752) (Homo sapiens, UniProt P24752).
T5 sequence (P24752 34-427): T3 sequence (P24752 34-427)
The settings on record: for isoTOP-ABPP ratio P24752_C413: 500 μM, invitro; for isoTOP-ABPP reactivity ratio, P24752_C413: 500 μm.

A further test deals with T6, ACAT1 C126 (P24752) (Homo sapiens, UniProt P24752).
T6 sequence (P24752 34-427): T3 sequence (P24752 34-427)
The following applies: for isoTOP-ABPP reactivity ratio, P24752_C126: 500 μm.

SMARCC2 C145 (Q8TAQ2), sequence (Q8TAQ2 whole entry): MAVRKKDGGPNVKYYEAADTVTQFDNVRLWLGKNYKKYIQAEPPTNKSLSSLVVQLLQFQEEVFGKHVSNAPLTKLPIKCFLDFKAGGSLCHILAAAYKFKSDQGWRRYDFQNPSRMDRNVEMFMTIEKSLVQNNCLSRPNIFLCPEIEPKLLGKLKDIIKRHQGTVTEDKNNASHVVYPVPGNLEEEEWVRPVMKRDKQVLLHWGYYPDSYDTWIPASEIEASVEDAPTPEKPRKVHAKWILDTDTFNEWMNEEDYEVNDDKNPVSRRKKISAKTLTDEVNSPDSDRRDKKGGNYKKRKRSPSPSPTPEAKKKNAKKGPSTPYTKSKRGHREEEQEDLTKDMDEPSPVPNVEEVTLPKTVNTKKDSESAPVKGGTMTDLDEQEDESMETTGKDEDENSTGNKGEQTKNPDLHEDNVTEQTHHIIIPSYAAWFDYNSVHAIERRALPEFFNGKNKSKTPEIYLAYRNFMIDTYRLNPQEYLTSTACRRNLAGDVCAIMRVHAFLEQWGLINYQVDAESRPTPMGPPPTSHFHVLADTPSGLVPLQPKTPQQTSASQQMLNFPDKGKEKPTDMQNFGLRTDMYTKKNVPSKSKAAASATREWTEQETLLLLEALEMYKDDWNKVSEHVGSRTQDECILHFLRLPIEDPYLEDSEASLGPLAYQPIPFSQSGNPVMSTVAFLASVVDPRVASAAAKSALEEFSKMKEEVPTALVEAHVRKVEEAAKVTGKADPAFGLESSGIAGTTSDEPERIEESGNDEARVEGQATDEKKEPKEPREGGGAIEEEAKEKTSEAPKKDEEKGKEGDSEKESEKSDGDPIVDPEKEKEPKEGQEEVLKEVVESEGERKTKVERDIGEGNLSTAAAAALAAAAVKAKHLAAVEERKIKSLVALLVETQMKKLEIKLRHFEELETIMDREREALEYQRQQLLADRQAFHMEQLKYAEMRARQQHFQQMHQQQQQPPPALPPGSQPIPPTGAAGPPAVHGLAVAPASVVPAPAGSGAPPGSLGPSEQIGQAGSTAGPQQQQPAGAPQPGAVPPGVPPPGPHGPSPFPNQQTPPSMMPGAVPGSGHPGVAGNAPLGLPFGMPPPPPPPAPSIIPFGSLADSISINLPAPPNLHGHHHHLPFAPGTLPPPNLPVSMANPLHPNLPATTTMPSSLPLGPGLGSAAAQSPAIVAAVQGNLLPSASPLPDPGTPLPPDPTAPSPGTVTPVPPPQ
CASP8 C360 (Q14790), sequence (Q14790 whole entry): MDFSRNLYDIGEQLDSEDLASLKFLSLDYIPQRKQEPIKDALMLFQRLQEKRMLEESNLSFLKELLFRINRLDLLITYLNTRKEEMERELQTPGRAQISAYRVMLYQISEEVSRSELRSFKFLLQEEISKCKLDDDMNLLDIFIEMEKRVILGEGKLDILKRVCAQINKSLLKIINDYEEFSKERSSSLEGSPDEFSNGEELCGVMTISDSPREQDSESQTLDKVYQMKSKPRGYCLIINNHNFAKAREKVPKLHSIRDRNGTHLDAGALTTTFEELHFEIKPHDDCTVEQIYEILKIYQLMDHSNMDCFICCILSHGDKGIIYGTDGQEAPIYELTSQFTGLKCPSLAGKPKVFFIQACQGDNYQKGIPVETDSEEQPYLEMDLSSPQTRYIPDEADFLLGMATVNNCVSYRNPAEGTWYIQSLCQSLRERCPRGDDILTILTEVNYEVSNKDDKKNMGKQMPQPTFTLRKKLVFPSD

On to `Cn1cc(S(=O)(=O)N2CCOCC2)cc1C(=O)NC(=O)CCl` [compound 11], for which the “isoTOP-ABPP ratio Q14790_C360” value at CASP8 C360 (Q14790) (231) and at CASP8 C360 (Q14790) (ramos) was 20.0 throughout. The “isoTOP-ABPP ratio, Q15306_C194” value at IRF4 C194 (Q15306) (500 μM, invitro, ramos) came out at 4.3. Further, at SMARCC2 C145 (Q8TAQ2) (500 μM, invitro, 231), the “isoTOP-ABPP ratio Q8TAQ2_C145” value was 20.0. For the same compound, the “isoTOP-ABPP ratio, Q9UPT9_C171” value at USP22 C171 (Q9UPT9) (500 μM, invitro, ramos) is 8.2. Moreover, the “isoTOP-ABPP ratio P24752_C119” value worked out at 1.2 at ACAT1 C119 (P24752) (231) and 0.9 on ACAT1 C119 (P24752) (ramos). Further, the “isoTOP-ABPP ratio, P24752_C196” value at ACAT1 C196 (P24752) (231) stood at 1.5; on ACAT1 C196 (P24752) (ramos) it was 1.3. The “isoTOP-ABPP ratio P24752_C413” value at ACAT1 C413 (P24752) (231) is 1.9; at ACAT1 C413 (P24752) (ramos), 1.7. For the same compound, the “isoTOP-ABPP ratio, P24752_C126” value on ACAT1 C126 (P24752) (500 μM, invitro, 231) was found to be 1.5.

Consider `COc1ccccc1OCCNC(=O)CCl` [compound 28], for which the “isoTOP-ABPP ratio (reactivity profile), Q14790_C360” value at CASP8 C360 (Q14790) (500 μm in-vitro ramos_231) worked out at 1.1. Besides, at IRF4 C194 (Q15306) (500 μm in-vitro ramos), the “isoTOP-ABPP ratio (reactivity profile), Q15306_C194” value worked out at 1.1. Moreover, the “isoTOP-ABPP ratio (reactivity profile), Q8TAQ2_C145” value at SMARCC2 C145 (Q8TAQ2) (500 μm in-vitro ramos) turned out to be 1.2; at SMARCC2 C145 (Q8TAQ2) (500 μm in-vitro ramos_231) it was 1.1. Further, the “isoTOP-ABPP ratio (reactivity profile), Q9UPT9_C171” value on USP22 C171 (Q9UPT9) (500 μm in-vitro ramos) is 1.3. Also, the “isoTOP-ABPP ratio (reactivity profile), P24752_C119” value at ACAT1 C119 (P24752) (500 μm in-vitro ramos) and at ACAT1 C119 (P24752) (500 μm in-vitro ramos_231) was 1.1 each time. Besides, the results for the “isoTOP-ABPP ratio (reactivity profile), P24752_C196” value at ACAT1 C196 (P24752) (500 μm in-vitro ramos) and on ACAT1 C196 (P24752) (500 μm in-vitro ramos_231) were 1.1 and 1.0, respectively. The “isoTOP-ABPP ratio (reactivity profile), P24752_C413” value came to 1.4 on ACAT1 C413 (P24752) (500 μm in-vitro ramos) and 1.2 at ACAT1 C413 (P24752) (500 μm in-vitro ramos_231). Moreover, the “isoTOP-ABPP ratio (reactivity profile), P24752_C126” value on ACAT1 C126 (P24752) (500 μm in-vitro ramos) amounted to 1.6; on ACAT1 C126 (P24752) (500 μm in-vitro ramos_231), 1.7.

Turning to `Cc1ccc(C=C(C#N)C(=O)NCCN2CCOCC2)cc1` [compound 41], the “isoTOP-ABPP reactivity ratio, Q14790_C360” value at CASP8 C360 (Q14790) (in-vitro_ramos) is reported as 0.8; at CASP8 C360 (Q14790) (in-vitro_ramos_231), 1.0. Further, the “isoTOP-ABPP reactivity ratio, Q15306_C194” value on IRF4 C194 (Q15306) (500 μm, in-vitro_ramos) was determined as 1.2. Also, the “isoTOP-ABPP reactivity ratio, Q8TAQ2_C145” value on SMARCC2 C145 (Q8TAQ2) (in-vitro_ramos) was determined as 2.8; at SMARCC2 C145 (Q8TAQ2) (in-vitro_ramos_231) it was 1.8. The “isoTOP-ABPP reactivity ratio, Q9UPT9_C171” value came to 1.4 at USP22 C171 (Q9UPT9) (in-vitro_ramos) and 3.0 at USP22 C171 (Q9UPT9) (in-vitro_ramos_231). Also, the “isoTOP-ABPP reactivity ratio, P24752_C119” value was 0.8 on ACAT1 C119 (P24752) (in-vitro_ramos) and 1.0 on ACAT1 C119 (P24752) (in-vitro_ramos_231). For the same compound, the “isoTOP-ABPP reactivity ratio, P24752_C196” value on ACAT1 C196 (P24752) (in-vitro_ramos) is listed as 1.0; on ACAT1 C196 (P24752) (in-vitro_ramos_231), 1.3. For the same compound, the “isoTOP-ABPP reactivity ratio, P24752_C413” value on ACAT1 C413 (P24752) (in-vitro_ramos) was 0.9; at ACAT1 C413 (P24752) (in-vitro_ramos_231), 0.8. In addition, the “isoTOP-ABPP reactivity ratio, P24752_C126” value on ACAT1 C126 (P24752) (in-vitro_ramos) was found to be 0.9; at ACAT1 C126 (P24752) (in-vitro_ramos_231) it was 1.0.
